target: cytochrome P450 2E1 (CYP2E1) (Homo sapiens, UniProt P05181); assay: CYP2E1 High Throughput Inhibitor Screening Kit, cDNA synthesized microsomal CYP2E1 (MFC to HFC); conditions: 16.5 μM
From the text: CYP2E1 High Throughput Inhibitor Screening Kit (BD Bioscience, USA) was used to screen the cytochrome P450 (CYP2E1) inhibitors from 22 Chinese medicine guiding drugs and 10 excipients and microsomal cytochrome P450 (CYP2E1) was synthesized from cDNA (BD Bioscience, USA). The principle of the screening kit is to measure the percentage of CYP2E inhibition, after adding the test sample to substrate MFC (7-Methoxy-4-trifluoromethyl coumarin) and cytochrome P450 (CYP2E1), by measuring the synthesis of standard CYP2E1 metabolite (HFC, 7-Hydroxy-4-trifluoromethyl coumarin) and use control HFC as baseline.
a. 149 μl NADPH-Cofactor Mix and 1 μl 20 mM DDTC were added to the #1 well in a 96-well plate and mixed thoroughly,
b. Add 100 μl Cofactor/acetonitrile mix to #2 to #12 wells, and well #1 to #8 are positive control. Well #9 and 10 are control and well #11 and #12 are blank,
c. […] Preparation of Experimental Groups: a. […] Transfer 50 μl from well #1 and #2 and added to well #3 and mixed thoroughly (triplicate for each sample), 3. Initiation and Termination of the Reaction: a. The 96-well plate was incubated at 37° C. for […], b. 100 μl of Enzyme/Substrate Mix was added to every well and mixed thoroughly except the blank wells, c. The 96-well plate was incubated at 37° C. for 40 min, d. 75 μl Stop Solution was added to every well and mixed thoroughly, e. Immediately add 100 μl Enzyme/Substrate Mix to blank wells and mixed thoroughly, f. Measure with a Fluoroskan Ascent FL (Thermo Electron Corporation, Finland) with excitation at 405 nm and emission at 538 nm, 4. The fluorescence was transverse into CYP 2E1 metabolite standard (HFC) concentration (pmol) and the percentage (%) of CYP 2E1 inhibition was calculated using control as baseline by following equation: […]

Chain of cytochrome P450 2E1 (CYP2E1) (P05181 whole entry): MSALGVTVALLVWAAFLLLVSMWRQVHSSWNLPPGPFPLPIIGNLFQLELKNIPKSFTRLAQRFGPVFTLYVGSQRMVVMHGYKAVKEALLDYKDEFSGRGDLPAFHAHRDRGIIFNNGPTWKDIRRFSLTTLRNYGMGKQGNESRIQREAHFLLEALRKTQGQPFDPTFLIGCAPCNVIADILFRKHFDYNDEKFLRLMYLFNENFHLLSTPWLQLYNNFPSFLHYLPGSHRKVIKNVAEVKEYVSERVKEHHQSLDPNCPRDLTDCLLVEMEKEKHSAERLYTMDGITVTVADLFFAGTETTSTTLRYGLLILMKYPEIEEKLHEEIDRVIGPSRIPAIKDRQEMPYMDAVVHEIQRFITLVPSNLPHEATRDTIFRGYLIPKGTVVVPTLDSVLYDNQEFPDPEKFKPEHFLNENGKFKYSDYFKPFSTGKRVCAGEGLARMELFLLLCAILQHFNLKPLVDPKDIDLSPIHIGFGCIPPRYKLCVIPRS

SMILES | Inhibition of CYP 2E1
Oc1cc(O)c2c(c1)O[C@H](c1ccc(O)c(O)c1)[C@H](O)C2 [(−)-Epicatechin] | 18.27%
O=c1cc(-c2ccccc2)oc2ccc3ccccc3c12 [β-naphthoflavone] | 6.52%

same assay, conditions: 66 μM

SMILES | Inhibition of CYP 2E1
Oc1cc(O)c2c(c1)O[C@H](c1ccc(O)c(O)c1)[C@H](O)C2 [(−)-Epicatechin] | 2.57%
O=c1cc(-c2ccccc2)oc2ccc3ccccc3c12 [β-naphthoflavone] | 15.40%

same assay, conditions: Table 3; minimum tested concentration (mg/L) × volume of human liver and intestine (3L)

SMILES | Minimum Effective Dose
O=c1c(-c2ccc(O)cc2)coc2c([C@@H]3O[C@H](CO)[C@@H](O)[C@H](O)[C@H]3O)c(O)ccc12 [Puerarin] | 23 mg
O=C(O)/C=C/c1ccccc1 [trans-Cinnamic acid] | 8 mg
Oc1cc(O)c2c(c1)O[C@H](c1ccc(O)c(O)c1)[C@H](O)C2 [(−)-Epicatechin] | 16 mg
O=c1cc(-c2ccccc2)oc2ccc3ccccc3c12 [β-naphthoflavone] | 15 mg
O=C(CCc1ccc(O)cc1)c1c(O)cc(O)cc1O[C@@H]1O[C@H](CO)[C@@H](O)[C@H](O)[C@H]1O [Phloridzin] | 24 mg
CCCCCCCCCCCC1=C(O)C(=O)C=C(O)C1=O [Embelin] | 16 mg

test system: amidase; assay: Mouse liver microsomal amidase, isoniazid to isonicotinic acid; format: biochemical; conditions: 1 uM
From the text: Mouse liver microsomes were used as the source of amidase, and isoniazid was used as the amidase metabolism drugs. quantitative isoniazid was catalyzed into metabolites isonicotinic acid (INA) by amidase, and was used as the index for measurement of the amidase activity for establishment of the platform for screening in vitro amidase activity inhibitors. The HPLC system includes a Shimadzu the LC-LOAD pump, 1 Shimadzu system control and a Shimadzu autosampler (Shimadzu Scientific Instrument, Japan). A C18 column (particle size 5 μm, inner diameter of 50×4.6 mm, 25 cm) containing 70% methanol and 30% ammonium formate (50 mM, pH=2.5) of the mobile phase for HPLC separation, and the experimental steps are outlined as follows:
(2) An aliquot of 150 μL mouse liver microsomal solution was added to 100 μL isoniazid solution in 35 μL 67 mM potassium phosphate buffer solution ([…], pH=7) with a final concentration at 3 mM, and then mixed thoroughly with 15 μL amidase inhibitor (deionized water was added in the control group). (3) Incubation at 37° C. water bath for 30 minutes. (4) An aliquot of 300 μL acetonitrile (ACN) was added and mixed thoroughly, and incubated for 6 minutes. (5) An aliquot of 30 μL perchloric acid was then mixed and incubated for 6 minutes. (6) The mixture was centrifuged at 13000 g for 6 minutes. (7) After centrifugation, 100 μL of the supernatant was injected into HPLC. (8) Methanol ammonium formate (50 mM, pH=2.5)=70:30 (V/V) was selected as the mobile phase, and the flow rate was controlled at […] and detected at 270 nm UV. […] The amidase inhibition % was then calculated using the following formula: […]

SMILES | Amidase inhibition
O=c1c(-c2ccc(O)cc2)coc2c([C@@H]3O[C@H](CO)[C@@H](O)[C@H](O)[C@H]3O)c(O)ccc12 [Puerarin] | 40.9 ± 3.6%
C=C(C)C1CC=C(C)CC1 (single isomer, unassigned; (+)) [(+)-Limonene] | 5.1 ± 0.4%
O=c1cc(-c2ccccc2)oc2cc(O)c(O)c(O)c12 [Baicalein] | 2.8 ± 15.1%
O=c1cc(-c2ccc(O)c(O)c2)oc2cc(O[C@@H]3O[C@H](CO)[C@@H](O)[C@H](O)[C@H]3O)cc(O)c12 [Luteolin-7-Glucoside] | 3.2 ± 0.8%
O=c1c(-c2ccc(O)cc2)coc2cc(O)ccc12 [Daidzein] | −12.1 ± 6.3%
O=C(O)/C=C/c1ccccc1 [trans-Cinnamic acid] | −11.9 ± 2.3%
Oc1cc(O)c2c(c1)O[C@H](c1ccc(O)c(O)c1)[C@H](O)C2 [(−)-Epicatechin] | −25.8 ± 6.2%
C=CC(=C)CCC=C(C)C [β-Myrcene] | 1.7 ± 1.3%
O=C(O)[C@H]1O[C@@H](Oc2cc3oc(-c4ccccc4)cc(=O)c3c(O)c2O)[C@H](O)[C@@H](O)[C@@H]1O [Baicalin] | 2.1 ± 7.5%
O=c1cc(-c2ccc(O)cc2)oc2cc(O)c([C@@H]3O[C@H](CO)[C@@H](O)[C@H](O)[C@H]3O)c(O)c12 [Isovitexin] | 13.9 ± 2.3%
COc1ccc(-c2cc(=O)c3c(O)cc(O[C@@H]4O[C@H](CO[C@@H]5O[C@@H](C)[C@H](O)[C@@H](O)[C@H]5O)[C@@H](O)[C@H](O)[C@H]4O)cc3o2)cc1O [Diosmin] | 0.3 ± 8.1%

same assay, conditions: 10 uM

SMILES | Amidase inhibition
O=c1c(-c2ccc(O)cc2)coc2c([C@@H]3O[C@H](CO)[C@@H](O)[C@H](O)[C@H]3O)c(O)ccc12 [Puerarin] | 33.0 ± 3.3%
C=C(C)C1CC=C(C)CC1 (single isomer, unassigned; (+)) [(+)-Limonene] | 3.2 ± 8.6%
O=c1cc(-c2ccccc2)oc2cc(O)c(O)c(O)c12 [Baicalein] | 5.7 ± 2.6%
O=c1cc(-c2ccc(O)c(O)c2)oc2cc(O[C@@H]3O[C@H](CO)[C@@H](O)[C@H](O)[C@H]3O)cc(O)c12 [Luteolin-7-Glucoside] | 8.7 ± 1.9%
O=c1c(-c2ccc(O)cc2)coc2cc(O)ccc12 [Daidzein] | 1.0 ± 7.4%
O=C(O)/C=C/c1ccccc1 [trans-Cinnamic acid] | −1.4 ± 0.6%
Oc1cc(O)c2c(c1)O[C@H](c1ccc(O)c(O)c1)[C@H](O)C2 [(−)-Epicatechin] | −4.8 ± 10.5%
C=CC(=C)CCC=C(C)C [β-Myrcene] | 6.6 ± 4.1%
O=C(O)[C@H]1O[C@@H](Oc2cc3oc(-c4ccccc4)cc(=O)c3c(O)c2O)[C@H](O)[C@@H](O)[C@@H]1O [Baicalin] | 15.2 ± 6.3%
O=c1cc(-c2ccc(O)cc2)oc2cc(O)c([C@@H]3O[C@H](CO)[C@@H](O)[C@H](O)[C@H]3O)c(O)c12 [Isovitexin] | 5.8 ± 2.7%
COc1ccc(-c2cc(=O)c3c(O)cc(O[C@@H]4O[C@H](CO[C@@H]5O[C@@H](C)[C@H](O)[C@@H](O)[C@H]5O)[C@@H](O)[C@H](O)[C@H]4O)cc3o2)cc1O [Diosmin] | −0.7 ± 7.7%

same assay, conditions: 100 uM

SMILES | Amidase inhibition
O=c1c(-c2ccc(O)cc2)coc2c([C@@H]3O[C@H](CO)[C@@H](O)[C@H](O)[C@H]3O)c(O)ccc12 [Puerarin] | 17.9 ± 7.2%
C=C(C)C1CC=C(C)CC1 (single isomer, unassigned; (+)) [(+)-Limonene] | 6.2 ± 3.8%
O=c1cc(-c2ccccc2)oc2cc(O)c(O)c(O)c12 [Baicalein] | 15.6 ± 1.0%
O=c1cc(-c2ccc(O)c(O)c2)oc2cc(O[C@@H]3O[C@H](CO)[C@@H](O)[C@H](O)[C@H]3O)cc(O)c12 [Luteolin-7-Glucoside] | 12.9 ± 3.1%
O=c1c(-c2ccc(O)cc2)coc2cc(O)ccc12 [Daidzein] | 16.2 ± 12.6%
O=C(O)/C=C/c1ccccc1 [trans-Cinnamic acid] | 12.6 ± 1.7%
Oc1cc(O)c2c(c1)O[C@H](c1ccc(O)c(O)c1)[C@H](O)C2 [(−)-Epicatechin] | 3.6 ± 4.3%
C=CC(=C)CCC=C(C)C [β-Myrcene] | 5.8 ± 2.7%
O=C(O)[C@H]1O[C@@H](Oc2cc3oc(-c4ccccc4)cc(=O)c3c(O)c2O)[C@H](O)[C@@H](O)[C@@H]1O [Baicalin] | 34.8 ± 10.2%
O=c1cc(-c2ccc(O)cc2)oc2cc(O)c([C@@H]3O[C@H](CO)[C@@H](O)[C@H](O)[C@H]3O)c(O)c12 [Isovitexin] | 1.1 ± 7.1%
COc1ccc(-c2cc(=O)c3c(O)cc(O[C@@H]4O[C@H](CO[C@@H]5O[C@@H](C)[C@H](O)[C@@H](O)[C@H]5O)[C@@H](O)[C@H](O)[C@H]4O)cc3o2)cc1O [Diosmin] | 1.6 ± 5.1%

target: human liver microsomal cytochrome P450 2E1 (CYP2E1) (Homo sapiens, UniProt P05181); assay: Human liver microsomal CYP2E1, chlorzoxazone 6-hydroxylation; conditions: 16.5 μM;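 also: chlorzoxazone added as substrate, 6-hydroxychlorzoxazone formation quantified by LC/MS/MS after 30 min at 37 °C with NADP+ regenerating system, compared against solvent control without test sample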
Sequence (P05181 whole entry): as above
Method: Microsomes prepared from human liver were used to extract cytochrome P450 2E1 (CYP2E1) and CYP2E1 inhibitors were screened from 39 Chinese medicine guiding drugs and 10 excipients. Chlorzoxazone hydroxylation is a reaction catalyzed primarily by CYP2E1 in liver. The extracted human liver microsomal cytochrome P450 2E1 (CYP2E1) was mixed with its substrate, Chlorzoxazone, and test sample was then added Inhibition of CYP2E1 activity was calculated by measuring CYP2E1 standard metabolite, 6-OH-CZX (6-Hydroxy-Chlorzoxazone), and compared with control 6-OH-CZX.
After incubation, 16 mM Chlorzoxazone and test samples were added to experimental groups; methanol:sterilized water at 1:1 ratio was added to control groups and DDTC was added to positive control groups,
Finally, cofactor 1 mM NADP^+, 10 mM G6P and 2 IU G6PD were added and reaction mixtures were transferred to pre-incubation 37° C. water bath for 1 mM and activity was measured after 30 min of reaction
At the end of reaction, 500 μl acetonitrile was added to stop the reaction followed by 5 g/mL 4-hydroxy-tobutamide after 1 mM incubation. The mixture was then centrifuged and 20 L of supernatant was diluted ten times with methanol/sterilized water and 5 L was used for LC/MS/MS analysis. […] The inhibition of CYP2E1 was then calculated by the following equation:

SMILES | Inhibition of CYP 2E1
C=C(C)C1CC=C(C)CC1 (single isomer, unassigned; (+)) [(+)-Limonene] | 13.77 ± 1.96%
O=c1cc(-c2ccc(O)c(O)c2)oc2cc(O[C@@H]3O[C@H](CO)[C@@H](O)[C@H](O)[C@H]3O)cc(O)c12 [Luteolin-7-Glucoside] | 42.96 ± 5.10%

same assay, conditions: 33 μM

SMILES | Inhibition of CYP 2E1
C=C(C)C1CC=C(C)CC1 (single isomer, unassigned; (+)) [(+)-Limonene] | 38.05 ± 1.95%
O=c1cc(-c2ccc(O)c(O)c2)oc2cc(O[C@@H]3O[C@H](CO)[C@@H](O)[C@H](O)[C@H]3O)cc(O)c12 [Luteolin-7-Glucoside] | 55.87 ± 0.67%

same assay, conditions: 66 μM

SMILES | Inhibition of CYP 2E1
C=C(C)C1CC=C(C)CC1 (single isomer, unassigned; (+)) [(+)-Limonene] | 63.64 ± 2.74%
O=c1cc(-c2ccc(O)c(O)c2)oc2cc(O[C@@H]3O[C@H](CO)[C@@H](O)[C@H](O)[C@H]3O)cc(O)c12 [Luteolin-7-Glucoside] | 60.26 ± 1.11%

same assay, conditions: Table 6; minimum tested concentration (mg/L) × volume of human liver and intestine (3 L)

SMILES | Minimum Effective Dose
O=c1cc(-c2ccccc2)oc2cc(O)c(O)c(O)c12 [Baicalein] | 15 mg
O=c1cc(-c2ccc(O)c(O)c2)oc2cc(O[C@@H]3O[C@H](CO)[C@@H](O)[C@H](O)[C@H]3O)cc(O)c12 [Luteolin-7-Glucoside] | 24 mg
O=c1c(-c2ccc(O)cc2)coc2cc(O)ccc12 [Daidzein] | 14 mg
C=CC(=C)CCC=C(C)C [β-Myrcene] | 8 mg
O=C(O)[C@H]1O[C@@H](Oc2cc3oc(-c4ccccc4)cc(=O)c3c(O)c2O)[C@H](O)[C@@H](O)[C@@H]1O [Baicalin] | 24 mg
O=c1cc(-c2ccc(O)cc2)oc2cc(O)c([C@@H]3O[C@H](CO)[C@@H](O)[C@H](O)[C@H]3O)c(O)c12 [Isovitexin] | 24 mg
COc1ccc(-c2cc(=O)c3c(O)cc(O[C@@H]4O[C@H](CO[C@@H]5O[C@@H](C)[C@H](O)[C@@H](O)[C@H]5O)[C@@H](O)[C@H](O)[C@H]4O)cc3o2)cc1O [Diosmin] | 33 mg
